Laboratory results from US20180228828A1, “FIXED-DOSE COMBINATIONS OF ANTIVIRAL COMPOUNDS” (priority 2015, published 2018).

Assays:
[1] = human bioavailability comparison study, Tablet Formulation 10 vs co-administered single entity products; format: in vivo; conditions: for AUC(0-inf) / Cmax / AUC(0-t) / concentration at 24 h: human plasma, fasted; for concentration at 24 h: read-out: C24 GM
Description: (§1) The blend is lubricated with magnesium stearate prior to roller compaction. Following roller compaction, the granules are further lubricated with magnesium stearate before compression on a rotary press. Tablet properties of apparent density and solid fraction are determined by gravimetric measurement of the drug product and geometric estimation of size with corresponding component powder measure of true density using helium pycnometry. The core tablets are then film coated and waxed to complete manufacture.
(§2) The reference in the study was co-administration of single entity products to achieve the equivalent total dose. In this cross-over design study all subjects were in the fasted state. Tablet Formulations 9b, and 10b were administered as Treatment C in the respective studies. Tablet Formulations 9a, and 10a were administered as Treatment B in the respective studies. The co-administration of the reference products were identified as Treatment A. After administration, blood samples were taken periodically, and the plasma concentration of the analytes, both primary compounds and metabolites, determined to generate the pharmacokinetic profiles and related specific metrics. These metrics included Cmax, AUC, and C24 (where quantifiable). Summary results from the human PK trials for Tablet Formulation 9 and Tablet Formulation 10 products are provided in Table 10 to Table 13 and Table 14 to 17, respectively. The resulting metrics were then compared in relation to the reference single entity products to assess similarity.

[2] = human bioavailability comparison study, Tablet Formulation 9 vs co-administered single entity products; format: in vivo; conditions: for AUC(0-inf) / Cmax / AUC(0-t) / concentration at 24 h: human plasma, fasted; for concentration at 24 h: read-out: C24 GM
Description: as §1, §2

[3] = Treatment B (Tablet Formulation 10a) / Treatment A (single entities)
[4] = Treatment C (Tablet Formulation 10b) / Treatment A (single entities)
[5] = human, in vivo, Treatment A: co-administered single entity products, equivalent total dose
[6] = human, in vivo, Treatment A: co-administered single entity products, equivalent total dose, read-out: AUC0-24 GM
[7] = human, in vivo, Treatment A: co-administered single entity products, equivalent total dose, read-out: AUC0-last GM
[8] = human, in vivo, Treatment B: one unit Tablet Formulation 10a
[9] = human, in vivo, Treatment C: one unit Tablet Formulation 10b
[10] = Treatment B (Tablet Formulation 9a) / Treatment A (single entities)
[11] = Treatment C (Tablet Formulation 9b) / Treatment A (single entities)
[12] = human, in vivo, Treatment B: two units Tablet Formulation 9a
[13] = human, in vivo, Treatment C: two units Tablet Formulation 9b
[14] = human, plasma, oral, Treatment A: co-administered single entity products, equivalent total dose
[15] = human, plasma, oral, Treatment A: co-administered single entity products, equivalent total dose, read-out: AUC0-24 GM
[16] = human, plasma, oral, Treatment A: co-administered single entity products, equivalent total dose, read-out: AUC0-last GM
[17] = human, plasma, oral, Treatment B: one unit Tablet Formulation 10a
[18] = human, plasma, oral, Treatment C: one unit Tablet Formulation 10b
[19] = human, plasma, oral, Treatment B: two units Tablet Formulation 9a
[20] = human, plasma, oral, Treatment C: two units Tablet Formulation 9b

CC(C)OC(=O)[C@@H](C)NP(=O)(OC[C@H]1O[C@@H](n2ccc(=O)[nH]c2=O)[C@](C)(Cl)[C@@H]1O)Oc1ccccc1 (stereo partly drawn) [Compound I, (2R)-isopropyl 2-(((((2R,3R,4R,5R)-4-chloro-5-(2,4-dioxo-3,4-dihydropyrimidin-1(2H)-yl)-3-hydroxy-4-methyltetrahydrofuran-2-yl)methoxy)(phenoxy)phosphoryl)amino)propanoate]
AUC0-24 B/A GM ratio [1, 3]: 0.96 | AUC0-last B/A GM ratio [1, 3]: 0.95 | AUC0-∞ B/A GM ratio [1, 3]: 0.98 | Cmax B/A GM ratio [1, 3]: 0.98 | AUC0-24 C/A GM ratio [1, 4]: 1.01 | AUC0-last C/A GM ratio [1, 4]: 1.00 | AUC0-∞ C/A GM ratio [1, 4]: 1.01 | Cmax C/A GM ratio [1, 4]: 1.18 | AUC(0-inf) [1, 5]: 1.69 µM·h | Cmax [1, 5]: 525 nM | AUC(0-t) [1, 6]: 1.65 µM·h | AUC(0-t) [1, 7]: 1.63 µM·h | AUC(0-t) ([1]; human, in vivo, Treatment B: one unit Tablet Formulation 10a (300 mg Compound I, 100 mg Compound II, 50 mg Compound III), read-out: AUC0-last GM): 1.55 µM·h | AUC(0-inf) [1, 8]: 1.65 µM·h | Cmax [1, 8]: 517 nM | AUC(0-t) ([1]; human, in vivo, Treatment B: one unit Tablet Formulation 10a, read-out: AUC0-24 GM): 1.58 µM·h | AUC(0-t) ([1]; human, in vivo, Treatment C: one unit Tablet Formulation 10b (300 mg Compound I, 100 mg Compound II, 50 mg Compound III), read-out: AUC0-last GM): 1.63 µM·h | AUC(0-inf) [1, 9]: 1.7 µM·h | Cmax [1, 9]: 618 nM | AUC(0-t) ([1]; human, in vivo, Treatment C: one unit Tablet Formulation 10b, read-out: AUC0-24 GM): 1.67 µM·h | AUC0-24 B/A GM ratio [2, 10]: 1.23 | AUC0-last B/A GM ratio [2, 10]: 1.24 | AUC0-∞ B/A GM ratio [2, 10]: 1.23 | Cmax B/A GM ratio [2, 10]: 1.44 | AUC0-24 C/A GM ratio [2, 11]: 1.37 | AUC0-last C/A GM ratio [2, 11]: 1.38 | AUC0-∞ C/A GM ratio [2, 11]: 1.36 | Cmax C/A GM ratio [2, 11]: 1.69 | AUC(0-inf) [2, 5]: 2.6 µM·h | Cmax [2, 5]: 738 nM | AUC(0-t) [2, 6]: 2.56 µM·h | AUC(0-t) [2, 7]: 2.52 µM·h | AUC(0-t) ([2]; human, in vivo, Treatment B: two units Tablet Formulation 9a (450 mg Compound I, 100 mg Compound II, 50 mg Compound III), read-out: AUC0-last GM): 3.11 µM·h | AUC(0-inf) [2, 12]: 3.2 µM·h | Cmax [2, 12]: 1060 nM | AUC(0-t) ([2]; human, in vivo, Treatment B: two units Tablet Formulation 9a, read-out: AUC0-24 GM): 3.15 µM·h | AUC(0-t) ([2]; human, in vivo, Treatment C: two units Tablet Formulation 9b (450 mg Compound I, 100 mg Compound II, 50 mg Compound III), read-out: AUC0-last GM): 3.48 µM·h | AUC(0-inf) [2, 13]: 3.54 µM·h | Cmax [2, 13]: 1250 nM | AUC(0-t) ([2]; human, in vivo, Treatment C: two units Tablet Formulation 9b, read-out: AUC0-24 GM): 3.52 µM·h

COC(=O)N[C@H](C(=O)N1CCC[C@H]1c1nc(-c2ccc3c(c2)O[C@@H](c2ccccc2)n2c-3cc3cc(-c4c[nH]c([C@@H]5CCCN5C(=O)[C@@H](NC(=O)OC)C(C)C)n4)ccc32)c[nH]1)C(C)C [Compound II, dimethyl N,N′-([(6S)-6-phenylindolo[1,2-c][1,3]benzoxazine-3,10-diyl]bis{1H-imidazole-5,2-diyl-(2S)-pyrrolidine-2,1-diyl[(2S)-3-methyl-1-oxobutane-1,2-diyl]})dicarbamate]
Cmax ([1]; Treatment C: one unit Tablet Formulation 10b): 102 nM | AUC(0-inf) [1, 14]: 1.84 µM·h | Cmax [1, 14]: 101 nM | AUC(0-t) [1, 15]: 1.12 µM·h | AUC(0-t) [1, 16]: 1.81 µM·h | concentration at 24 h [1, 14]: 28.5 nM | AUC(0-t) ([1]; human, plasma, oral, Treatment B: one unit Tablet Formulation 10a (300 mg Compound I, 100 mg Compound II, 50 mg Compound III), read-out: AUC0-last GM): 1.55 µM·h | AUC(0-inf) [1, 17]: 1.58 µM·h | Cmax [1, 17]: 81.8 nM | AUC(0-t) ([1]; human, plasma, oral, Treatment B: one unit Tablet Formulation 10a, read-out: AUC0-24 GM): 0.95 µM·h | concentration at 24 h [1, 17]: 25.1 nM | AUC(0-t) ([1]; human, plasma, oral, Treatment C: one unit Tablet Formulation 10b (300 mg Compound I, 100 mg Compound II, 50 mg Compound III), read-out: AUC0-last GM): 1.83 µM·h | AUC(0-inf) [1, 18]: 1.85 µM·h | AUC(0-t) ([1]; human, plasma, oral, Treatment C: one unit Tablet Formulation 10b, read-out: AUC0-24 GM): 1.14 µM·h | concentration at 24 h [1, 18]: 29.2 nM | Cmax ([2]; Treatment C: two units Tablet Formulation 9b): 115 nM | AUC(0-inf) [2, 14]: 2.04 µM·h | Cmax [2, 14]: 113 nM | AUC(0-t) [2, 15]: 1.21 µM·h | AUC(0-t) [2, 16]: 2.01 µM·h | concentration at 24 h [2, 14]: 32.3 nM | AUC(0-t) ([2]; human, plasma, oral, Treatment B: two units Tablet Formulation 9a (450 mg Compound I, 100 mg Compound II, 50 mg Compound III), read-out: AUC0-last GM): 1.59 µM·h | AUC(0-inf) [2, 19]: 1.61 µM·h | AUC(0-t) ([2]; human, plasma, oral, Treatment B: two units Tablet Formulation 9a, read-out: AUC0-24 GM): 0.938 µM·h | concentration at 24 h [2, 19]: 25.2 nM | AUC(0-t) ([2]; human, plasma, oral, Treatment C: two units Tablet Formulation 9b (450 mg Compound I, 100 mg Compound II, 50 mg Compound III), read-out: AUC0-last GM): 2.35 µM·h | AUC(0-inf) [2, 20]: 2.38 µM·h | AUC(0-t) ([2]; human, plasma, oral, Treatment C: two units Tablet Formulation 9b, read-out: AUC0-24 GM): 1.41 µM·h | concentration at 24 h [2, 20]: 37.4 nM
